Experimental data from US8796217B2, “Use of transesterified olive oil in the cosmetic field” (Hallstar Italia S.R.L., priority 2008, dated 2014).

What was measured:
[1] = tested on: Reconstructed Human Epidermis (RHE) keratinocytes; experiment: MTT assay of keratinocyte vitality on the RHE; assay type: cell-based; details: MTT assay on RHE at 24 hour instant
Protocol: Keratinocyte vitality was ascertained using the MTT assay: MTT salt (3-(4,5-dimetil-tiaol-2-il)-2,5 diphenyltetrazolium bromide) may be reduced through the mitochondrial enzyme succinate-dehydrogenase found in living cells. The reduction product, formazan crystals, may be quantified by optic density at […] and is proportional to the number of living cells. The MTT assay was performed on the RHE at the 24 hour instant.

[2] = Transepidermal water loss (TEWL) after topical application in volunteers; assay type: in vivo, human; details: 5% ingredient applied topically, ten volunteers
Text: The clinical efficiency of bio-compatible liquid crystals generated by cetearyl-olivate, sorbitan-olivate was clinically verified. Firstly, its skin biocompatibility was verified in a study on its effect on transepidermal water loss (TEWL) with respect to other lipidic compositions. TEWL is a convalidated method for assessing the skin permeability barrier function (Fluhr, 2006). Ten volunteers have applied topically identical concentrations (5%) of the following ingredients: cetearyl-olivate, sorbitan-olivate; cetearyl alcohol, cetearyl-glucoside and poliglyceril-3 methylglucose distearate. The results—see FIG. 4—have shown that the application of cetearyl-olivate, sorbitan-olivate reduced the increase of TEWL by 29% over control formulae (FIG. 2).

Compound	Cell vitality (%) [1] [%]	induced TEWL / water loss following application [2]
Cn1c(=O)c2c(ncn2C)n(C)c1=O [Control (pure caffeine), caffeine]	100	–
poliglyceril-3 methylglucose distearate	–	activate excessive water loss following application
